# Assays:
# rhodopsin promoter = experiment: Dual luciferase rhodopsin promoter reporter assay in HEK293T cells; type: cell-based; conditions: 10 μM, 2 days
# Description: Nr2e3, Crx, and Nrl are known to activate rod gene expression by forming a complex at the promoters of rod genes. To test whether PR1 might interfere with this complex, a luciferase reporter assay was used. For this assay, the rhodopsin promoter driving firefly luciferase was co-transfected with Nrl, Nr2e3, or Crx or all of these transcription factors together into HEK293T cells. A large synergy in the activation of the rhodopsin reporter was found with the combination of these three transcription factors (FIG. 6G).
# HEK293T cells were transfected with 1 μg of the luciferase reporter BR-225Luc, 1 ng of the control pRL-CMV (Promega) and 100 ng of hNRL-pCMVSport6 (Open Biosystems), hCRX-pCMVSport6 (Open Biosystems), or hNR2E3-pcDNA3.1/HisC in 24 well plates using Lipofectamine 3000 reagent (Thermo Fisher Scientific). Transfection reagents were removed the following day and replaced with media containing DMSO or 10 μM PR1 for 2 days. Cells were lysed and firefly and renilla luciferase activity was measured with the Dual-Luciferase Reporter Assay System (Promega) using a 1420 Multilabel Victor3V plate reader.
# S opsin+ photoreceptors = experiment: Injection of timed-pregnant dams at E14 and E17, S opsin+ photoreceptors in P0 pups; type: in vivo, mouse; conditions: dams injected 100 μl of 50 mM at E14 and E17, pups analysed at P0, vs controls
# Protocol: (§1) Nr2e3 is expressed in developing rods prior to birth, and so to test whether PR1 could affect prenatal rod development, wild type timed-pregnant dams were injected with 100 μl of 50 mM PR1 at E14 and E17, during peak S cone photoreceptor genesis and the onset of Nr2e3 expression (FIG. 7F). The pups were sacrificed at P0 and their retinas collected for staining and for quantifying S opsin+ photoreceptors. […] To determine if PR1 affected rhodopsin expression in developing rods in vivo, pups were injected with 20 μl of 50 mM PR1 or an equal volume of DMSO at P2 or P3 (FIG. 7I). The pups were sacrificed the following day and analyzed rhodopsin expression by qPCR.
# Retinal explants or eyecups were fixed in 4% PFA in 1×PBS for 20 minutes at room temperature and then cryoprotected in 30% sucrose in 1×PBS overnight at 4° C. Samples were embedded in OCT (Sakura Finetek), frozen on dry ice, and then sectioned at 14-16 μm on a cryostat (Leica). Slides were blocked with a solution containing 10% Normal Horse Serum (Vector Labs) and 0.5% Triton X-100 (Sigma-Aldrich) in 1×PBS for 1 hour at room temperature and then stained overnight at 4° C. with primary antibodies diluted in blocking solution. […]
# rhodopsin = experiment: IP injection of P2 or P3 pups, rhodopsin expression by qPCR; type: in vivo, mouse; conditions: pups IP 20 μl of 50 mM at P2 or P3, sacrificed the following day, vs DMSO
# Protocol: as §1
# RNA was isolated using TRIzol (Invitrogen) and cDNA was synthesized using the iScript cDNA synthesis kit (Bio-Rad) following an intervening DNase treatment with RQ1 RNase-free DNase (Promega). SSO Fast (Bio-Rad) was used for quantitative real-time PCR. For analysis, values were normalized to Gapdh and ΔΔCt between DMSO and compound-treated samples was expressed as percent of DMSO treated controls (100*2^ΔΔCt). Two-way Student's t-tests were performed on ΔCt values.
# For intravitreal injections, adult mice (>P21) were anesthetized with isoflurane and injected with 1.5 μl of 10 mM PR1 using a 32-gauge Hamilton needle. […]
# [1] = system: retina from Rho^P23H transgenic mice at P8; experiment: P8 Rho^P23H retinal explants, rhodopsin Western blot; type: cell-based, mouse; conditions: 2 μM, three days
# Description: The effect of PR1 on Rho expression in adult rods might have potential as a way to slow the degeneration of these cells in dominant forms of retinitis pigmentosa, like Rho^P23H. In this disease, the affected individuals express a mutant form of rhodopsin that is likely inappropriately processed and ultimately leads to the death of the rods. […] The majority of rod cell death in the Rho^P23H transgenic line occurs between P14 and P21. […] […] The number of nuclei were counted in the ONL of each retina in the central region 100 μm from the optic nerve head. […] Gnb1 expression was also monitored as another measure of rod photoreceptor preservation because this is not directly affected by PR1 and thus serves as a surrogate for rod number. […]
# Retinal explants or retinas were homogenized in lysis buffer (50 mM Tris, 100 mM NaCl, 5 mM EDTA, 0.1% SDS, 1% Triton X-100, 2.5% glycerol, and 1× protease inhibitor cocktail) and equal amounts of protein samples were loaded and run in a 4-20% SDS gel (Bio-Rad). […] Signals were visualized on X-ray film with SuperSignal West Dura Extended Duration Substrate (Thermo Fisher Scientific) and quantified using ImageJ software (NIH).
compound,measurement,setting,value
"Cc1cc(C)cc(NC(=O)CCc2nc3sc4c(c3c(=O)[nH]2)CCCC4)c1 [PR1, N-(3,5-dimethylphenyl)-3-(4-oxo-5,6,7,8-tetrahydro-3H-[1]benzothiolo[2,3-d]pyrimidin-2-yl)propanamide]",activation of the rhodopsin promoter reporter,rhodopsin promoter; HEK293T transfected with Crx and Nrl,large reduction
same,activation of the rhodopsin promoter reporter,"rhodopsin promoter; HEK293T transfected with Nr2e3, Crx and Nrl",large reduction
same,number of S opsin-positive cells in pups,S opsin+ photoreceptors,increase in the number of S opsin-positive cells
same,rhodopsin expression by qPCR,rhodopsin,decreased rhodopsin
same,rhodopsin expression in the mutant rods,[1],effectively reduced rhodopsin expression

# Source: patent US10849904B2, “Methods for treatment of retinal disease by photoreceptor gene expression modulation” (University of Washington, priority 2015, dated 2020)
